Data from patent US12097241B2, “Methods of treating kidney failure, and/or improving or stablizing renal function using modified relaxin polypeptides” (BRISTOL-MYERS SQUIBB COMPANY, priority 2017, dated 2024).
Entries after “also recorded” stand apart in the source; their conditions may differ. Marks after values point to notes of the source that are not given here. Square brackets hold non-standard residues; d marks the D form. Ends that are not written are not given here. Phe(4-Ac) = CC(=O)c1ccc(C[C@H](N)C(=O)O)cc1

Columns and labels:
[1] = In vivo pharmacokinetic (PK) studies in rats; parameters: species or system Sprague-Dawley rats; conditions: rats, SC dose 1.0 mg/kg, adjusted from 0.2 mpk
In short: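 Male Sprague-Dawley rats (n=3) given a single 1 mg/kg IV or SC dose of relaxin constructs in 20 mM histidine, 750 mM NaCl, pH 6.0; jugular serum sampled to 72 h. Serum relaxin by ELISA; Cmax, AUCinf, C24 and half-life from non-compartmental analysis of individual profiles.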

[2] = Rat renal blood flow studies; format: in vivo, Sprague Dawley rats; conditions: 1 mg/kg intravenously; for % change in RBF over baseline: anesthetized male Sprague Dawley rats, renal blood flow recorded for 45 min
Protocol: Male Sprague Dawley rats (˜250-300 g) were anesthetized with sodium pentobarbital (50 mg/kg), the trachea was cannulated with PE-205 tubing to maintain airway patency, and temperature was maintained at 37° C. with a heated surgical plate. A 1.4 F pressure catheter (Millar Inc., Houston, TX) was advanced into the right carotid artery to measure aortic blood pressure. The right jugular vein was cannulated with PE-50 tubing for administration of test articles. The left kidney was exposed by a retroperitoneal incision, and a Doppler flow probe (Model 0.5 VB, Transonic System Inc., Ithaca, NY) was attached to the left renal artery to monitor blood flow. Sodium pentobarbital (15 mg/kg, intraperitoneal) was supplemented after completion of these surgical procedures. Following a 10-15 min equilibration, the relaxin was administered at 1 mg/kg intravenously in a dosing volume of 0.15 to 1.82 mL/kg over 30 seconds via an infusion pump (Harvard Apparatus, Holliston, MA). Blood pressure, heart rate and renal blood flow were continuously recorded for 45 min after relaxin administration using a Millar MPVS Ultra Signal Conditioning unit connected to a desktop computer running LabChart 7-Pro data acquisition software (ADInstruments, Dunedin, New Zealand) (Table 5). Table 5. Rat renal blood flow changes (abbreviations as in Table 3).

Row | Molecule | Rat PK AUC Total [1] | level at time molar at 24 h ([1]; read-out: Rat PK C24) | % change in RBF over baseline [2] | effect on renal blood flow (in words) ([2]; rats) | effect on renal blood flow (in words) ([2]; rats, 1 mg/kg) | death of animals after administration ([2]; rats, necropsy pale kidneys, 1 mg/kg)
1 | AQ1-20kDa PEG: AQ1 relaxin conjugated to PEG with an average MW of 20 kDa (chain 1 XLYSALANKCCHVGCTKRSLARFC; chain 2 ASWMEEVIKLCGRELVRAQIAICGMSTWS; non-natural residues) | 1.475 µM·h | 39 nM | +21% | increased renal blood flow | – | –
2 | CCCCCCCCCCCCCC(=O)N[C@@H](CCC(=O)NCCO/N=C(\C)c1ccc(C[C@H](N)C(=O)N[C@@H](CC(C)C)C(=O)N[C@@H](Cc2ccc(O)cc2)C(=O)N[C@@H](CO)C(=O)N[C@@H](C)C(=O)N[C@@H](CC(C)C)C(=O)N[C@@H](C)C(=O)N[C@@H](CC(N)=O)C(=O)N[C@@H](CCCCN)C(=O)N[C@H]2CSSC[C@@H]3NC(=O)CNC(=O)[C@H](C(C)C)NC(=O)[C@H](Cc4c[nH]cn4)NC(=O)[C@H](CSSC[C@H](NC(=O)[C@H](CC(C)C)NC(=O)[C@H](CCCCN)NC(=O)[C@@H](NC(=O)[C@@H](NC(=O)[C@H](CCC(=O)O)NC(=O)[C@H](CCC(=O)O)NC(=O)[C@H](CCSC)NC(=O)[C@H](Cc4c[nH]c5ccccc45)NC(=O)[C@H](CO)NC(=O)[C@H](C)N)C(C)C)[C@@H](C)CC)C(=O)NCC(=O)N[C@@H](CCCNC(=N)N)C(=O)N[C@@H](CCC(=O)O)C(=O)N[C@@H](CC(C)C)C(=O)N[C@@H](C(C)C)C(=O)N[C@@H](CCCNC(=N)N)C(=O)N[C@@H](C)C(=O)N[C@@H](CCC(N)=O)C(=O)N[C@@H]([C@@H](C)CC)C(=O)N[C@@H](C)C(=O)N[C@@H]([C@@H](C)CC)C(=O)N[C@H](C(=O)NCC(=O)N[C@@H](CCSC)C(=O)N[C@@H](CO)C(=O)N[C@H](C(=O)N[C@@H](Cc4c[nH]c5ccccc45)C(=O)N[C@@H](CO)C(=O)O)[C@@H](C)O)CSSC[C@@H](C(=O)O)NC(=O)[C@H](Cc4ccccc4)NC(=O)[C@H](CCCNC(=N)N)NC(=O)[C@H](C)NC(=O)[C@H](CC(C)C)NC(=O)[C@H](CO)NC(=O)[C@H](CCCNC(=N)N)NC(=O)[C@H](CCCCN)NC(=O)[C@H]([C@@H](C)O)NC3=O)NC2=O)cc1)C(=O)O [AQ1-Glu-C13-CH3] | – | – | −27^b % | – | impaired renal blood flow; also recorded: decreased renal blood flow | –
3 | CCCCCCCCCCCCCC(=O)N[C@@H](CCC(=O)NCCOCCOCCOCCOCCOCCOCCOCCOCCOCCOCCOCCOCCOCCOCCOCCOCCOCCOCCOCCOCCOCCOCCOCCOCCOCCOCCOCCOCCOCCOCCOCCOCCOCCOCCOCCOCCC(=O)NCCO/N=C(\C)c1ccc(C[C@H](N)C(=O)N[C@@H](CC(C)C)C(=O)N[C@@H](Cc2ccc(O)cc2)C(=O)N[C@@H](CO)C(=O)N[C@@H](C)C(=O)N[C@@H](CC(C)C)C(=O)N[C@@H](C)C(=O)N[C@@H](CC(N)=O)C(=O)N[C@@H](CCCCN)C(=O)N[C@H]2CSSC[C@@H]3NC(=O)CNC(=O)[C@H](C(C)C)NC(=O)[C@H](Cc4c[nH]cn4)NC(=O)[C@H](CSSC[C@H](NC(=O)[C@H](CC(C)C)NC(=O)[C@H](CCCCN)NC(=O)[C@@H](NC(=O)[C@@H](NC(=O)[C@H](CCC(=O)O)NC(=O)[C@H](CCC(=O)O)NC(=O)[C@H](CCSC)NC(=O)[C@H](Cc4c[nH]c5ccccc45)NC(=O)[C@H](CO)NC(=O)[C@H](C)N)C(C)C)[C@@H](C)CC)C(=O)NCC(=O)N[C@@H](CCCNC(=N)N)C(=O)N[C@@H](CCC(=O)O)C(=O)N[C@@H](CC(C)C)C(=O)N[C@@H](C(C)C)C(=O)N[C@@H](CCCNC(=N)N)C(=O)N[C@@H](C)C(=O)N[C@@H](CCC(N)=O)C(=O)N[C@@H]([C@@H](C)CC)C(=O)N[C@@H](C)C(=O)N[C@@H]([C@@H](C)CC)C(=O)N[C@H](C(=O)NCC(=O)N[C@@H](CCSC)C(=O)N[C@@H](CO)C(=O)N[C@H](C(=O)N[C@@H](Cc4c[nH]c5ccccc45)C(=O)N[C@@H](CO)C(=O)O)[C@@H](C)O)CSSC[C@@H](C(=O)O)NC(=O)[C@H](Cc4ccccc4)NC(=O)[C@H](CCCNC(=N)N)NC(=O)[C@H](C)NC(=O)[C@H](CC(C)C)NC(=O)[C@H](CO)NC(=O)[C@H](CCCNC(=N)N)NC(=O)[C@H](CCCCN)NC(=O)[C@H]([C@@H](C)O)NC3=O)NC2=O)cc1)C(=O)O [AQ1-PEG36-Glu-C13-CH3] | – | – | +20^b % | – | increased renal blood flow; also recorded: good renal blood flow | –
4 | BM25/AN1: human relaxin 2 with pAcF at B chain position 25 and asparagine at A chain position 1 (SEQ ID NO: 36, 37) (chain 1 NLYSALANKCCHVGCTKRSLARFC; chain 2 ASWMEEVIKLCGRELVRAQIAICG[Phe(4-Ac)]STWS; disulfide (positions not given here); ends not checked) | – | – | −20% | impaired renal blood flow | – | –
5 | CCCCCCCCCCCCCC(=O)NCCO/N=C(\C)c1ccc(C[C@H](NC(=O)CNC(=O)[C@@H]2CSSC[C@@H](C(=O)O)NC(=O)[C@H](Cc3ccccc3)NC(=O)[C@H](CCCNC(=N)N)NC(=O)[C@H](C)NC(=O)[C@H](CC(C)C)NC(=O)[C@H](CO)NC(=O)[C@H](CCCNC(=N)N)NC(=O)[C@H](CCCCN)NC(=O)[C@H]([C@@H](C)O)NC(=O)[C@@H]3CSSC[C@H](NC(=O)[C@H](CCCCN)NC(=O)[C@H](CC(N)=O)NC(=O)[C@H](C)NC(=O)[C@H](CC(C)C)NC(=O)[C@H](C)NC(=O)[C@H](CO)NC(=O)[C@H](Cc4ccc(O)cc4)NC(=O)[C@H](CC(C)C)NC(=O)[C@@H](N)CC(N)=O)C(=O)N[C@@H](CSSC[C@H](NC(=O)[C@H](CC(C)C)NC(=O)[C@H](CCCCN)NC(=O)[C@@H](NC(=O)[C@@H](NC(=O)[C@H](CCC(=O)O)NC(=O)[C@H](CCC(=O)O)NC(=O)[C@H](CCSC)NC(=O)[C@H](Cc4c[nH]c5ccccc45)NC(=O)[C@H](CO)NC(=O)[C@H](C)N)C(C)C)[C@@H](C)CC)C(=O)NCC(=O)N[C@@H](CCCNC(=N)N)C(=O)N[C@@H](CCC(=O)O)C(=O)N[C@@H](CC(C)C)C(=O)N[C@@H](C(C)C)C(=O)N[C@@H](CCCNC(=N)N)C(=O)N[C@@H](C)C(=O)N[C@@H](CCC(N)=O)C(=O)N[C@@H]([C@@H](C)CC)C(=O)N[C@@H](C)C(=O)N[C@@H]([C@@H](C)CC)C(=O)N2)C(=O)N[C@@H](Cc2c[nH]cn2)C(=O)N[C@@H](C(C)C)C(=O)NCC(=O)N3)C(=O)N[C@@H](CO)C(=O)N[C@H](C(=O)N[C@@H](Cc2c[nH]c3ccccc23)C(=O)N[C@@H](CO)C(=O)O)[C@@H](C)O)cc1 [BM25/AN1-C13-CH3] | – | – | −100^a % | – | impaired renal blood flow; also recorded: decreased renal blood flow | fatal
